Measurements taken from ChEMBL document CHEMBL4396870, “Pharmacological Chaperones for the Treatment of α-Mannosidosis” (J Med Chem, 2019).
Changes are numbered by the printed parent chain.

Assays:
[1] = tested on: T1, Lysosomal alpha-mannosidase (Homo sapiens), O00754 [R916C]; assay: Chaperone activity at human Lysosomal alpha-mannosidase R916C mutant transfected in human […] knockout HAP1 cells assessed as enzyme activity enhancement at 20 uM incubated for 96 hrs relative to control
T1 sequence (whole entry): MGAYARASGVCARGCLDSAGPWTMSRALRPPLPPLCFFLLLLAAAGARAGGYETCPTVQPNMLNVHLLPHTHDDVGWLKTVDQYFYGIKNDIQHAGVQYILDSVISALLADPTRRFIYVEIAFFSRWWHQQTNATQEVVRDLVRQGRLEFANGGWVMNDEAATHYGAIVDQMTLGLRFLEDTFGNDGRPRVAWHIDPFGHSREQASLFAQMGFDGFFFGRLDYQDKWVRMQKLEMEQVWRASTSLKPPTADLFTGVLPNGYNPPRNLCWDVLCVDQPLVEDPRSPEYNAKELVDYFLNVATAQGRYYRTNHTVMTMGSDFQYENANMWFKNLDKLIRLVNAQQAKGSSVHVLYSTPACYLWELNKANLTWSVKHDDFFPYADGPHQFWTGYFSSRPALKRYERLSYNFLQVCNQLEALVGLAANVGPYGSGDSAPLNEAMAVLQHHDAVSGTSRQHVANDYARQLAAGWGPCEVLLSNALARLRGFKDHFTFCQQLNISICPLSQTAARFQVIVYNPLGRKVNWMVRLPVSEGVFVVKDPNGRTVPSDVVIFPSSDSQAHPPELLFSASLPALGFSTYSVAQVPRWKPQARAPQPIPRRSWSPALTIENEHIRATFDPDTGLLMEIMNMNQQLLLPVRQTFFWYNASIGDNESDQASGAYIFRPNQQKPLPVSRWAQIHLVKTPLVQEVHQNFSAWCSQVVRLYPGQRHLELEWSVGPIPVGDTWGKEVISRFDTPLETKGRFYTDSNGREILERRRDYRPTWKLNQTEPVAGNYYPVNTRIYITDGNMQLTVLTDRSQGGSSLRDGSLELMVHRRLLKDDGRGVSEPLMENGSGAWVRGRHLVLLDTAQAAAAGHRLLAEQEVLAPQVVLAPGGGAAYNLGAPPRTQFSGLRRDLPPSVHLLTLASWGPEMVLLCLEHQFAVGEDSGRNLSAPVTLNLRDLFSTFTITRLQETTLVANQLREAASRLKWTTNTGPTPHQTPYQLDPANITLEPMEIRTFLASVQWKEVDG

[2] = tested on: T2, Lysosomal alpha-mannosidase (Homo sapiens), O00754 [H72L]; assay: Chaperone activity at human Lysosomal alpha-mannosidase H72L mutant transfected in human […] knockout HAP1 cells assessed as enzyme activity enhancement at 2 uM incubated for 96 hrs relative to control
T2 sequence (whole entry): T1 sequence (whole entry) with H72L, C916R

Activity [1] [%] | Activity [2] [%] | SMILES
63 | 34 | CC(C)(C)OC(=O)NCCCCCCCCCN[C@@H]1[C@@H](O)[C@@H](O)[C@H](O)[C@H]2COC(=O)N21
11 | 23 | COC[C@H]1O[C@@H]2O[C@H]3[C@H](OC)[C@@H](OC)[C@@H](O[C@H]4[C@H](OC)[C@@H](OC)[C@@H](O[C@H]5[C@H](OC)[C@@H](OC)[C@@H](O[C@H]6[C@H](OC)[C@@H](OC)[C@@H](O[C@H]7[C@H](OC)[C@@H](OC)[C@@H](O[C@H]8[C@H](OC)[C@@H](OC)[C@@H](O[C@H]1[C@H](OC)[C@H]2OC)O[C@@H]8COC)O[C@@H]7COC)O[C@@H]6COC)O[C@@H]5COCc1cn(CCCCCCN[C@@H]2[C@@H](O)[C@@H](O)[C@H](O)[C@H]5COC(=O)N52)nn1)O[C@@H]4COC)O[C@@H]3COC
